Tests used:
[1] = system: mice; test: Porsolt's forced swim test; format: in vivo, mouse
Experimental: Further validation of role of P2X7R in affective disorders was performed by examining its expression pattern in response to stress and treatment with antidepressant drugs. […] In parallel, a control group of mice was given vehicle solution (i.e. without paroxetine) using the same treatment regiment while a second control group of mice was left undisturbed and stress-free (i.e. untreated) during the same period of the experiments. At the end of the long-term treatment, part of the mice of each experimental group were tested in the dark/light box (test of anxiety behaviour) and in the Porsolt's forced swim test (test of depressive-like behaviour) to confirm the effectiveness of the treatment (FIG. 5). […] The other part of the experimental groups (i.e. mice without test experience) were decapitated, brains rapidly removed and frozen at −80° C. until usage.
The effects of P2X7R inhibition on depressive-like behaviour was assessed 24 hours and 48 hours after infusion of siRNA, control or vehicle according to the standard test paradigm, the Porsolt's forced swim test (Porsolt et al., Arch. Int. Pharmacodym. 229 (1977), 327-336; Porsolt, Rev. Neurosci. 11 (2000), 53-58). […] Compared to vehicle application, no influence of control double stranded RNA (5′-[…]-3′) on floating behaviour (passive stress coping) was detected. […] This interpretation becomes moreover evident when the effects of antidepressants on passive stress coping behaviour in the forced swim test are visualized (FIG. 5). Passive stress coping behaviour increased after acute intrahippocampal injection (bilateral, dentate gyrus) of siRNA targeting P2X7R. The Porsolt's forced swim test is a standard test used to assess the effectiveness of antidepressants and it has been proven by many studies that the test is selectively sensitive for these effects, given that the right animal model is used. The paradigm has been widely used to test pharmaceutical compounds and to validate animal models of depression, which show an increase in passive behaviour as do the mice where P2X7R has been inhibited (siRNA).
The forced swim test is a standard test that measures primary stress-induced reductions in avoidance or escape, termed behavioural despair. The test is used to determine the effectiveness of antidepressants, test new pharmaceutical compounds and validate animal models of depression (Porsolt et al., Arch. Int. Pharmacodym. 229 (1977), 327-336; Porsolt, Rev. Neurosci. 11 (2000), 53-58; Rénéric et al., Behav. Brain Res. 136 (2002), 521-532; Page et al., Psychopharmacology 165 (2003), 194-201; Kelliher et al., Psychoneuroendocrinology 28 (2003), 332-347). The test consists of placing a mouse for a period of 5 minutes into a glass cylinder containing water. Under such circumstances, the mouse cannot touch the bottom of the cylinder and is thus forced to swim. Time, latency and frequency of struggling versus floating are scored as behavioural parameters. […] Increased struggling (i.e. active attempts to escape) indicates active coping behaviour that can be interpreted as an improvement of depression-like symptoms. For example, treatment with serotonergic antidepressants reduce the total time spent floating (Borsini, Neurosci. Biobehav. Rev. 19 (1995), 377-395; Redrobe and Bourin, Psychopharmacology 138 (1998), 198-206, and in parallel increases the time of active behaviour (i.e. swimming or struggling; Lucki et al., Psychopharmacology 155 (2001), 315-322).
The behaviour of individual mice was assessed using the Porsolt's forced swim test 24 hours after injection of vehicle solution, KN-62, or oATP. A pre-exposure of 5 minutes to the test was performed 15-17 minutes after administration of vehicle, KN-62, or oATP. A description of the Porsolt's forced swim test is given in example 9. […]

[2] = system: P2X7R; conditions: cited from earlier work
[3] = system: other P2X receptors; conditions: cited from earlier work
[4] = biological target: T1, P2X7R (Rattus norvegicus, UniProt Q64663); conditions: concentrations of 10 to 300 μM; cited from earlier work
T1 sequence (Q64663 1-595): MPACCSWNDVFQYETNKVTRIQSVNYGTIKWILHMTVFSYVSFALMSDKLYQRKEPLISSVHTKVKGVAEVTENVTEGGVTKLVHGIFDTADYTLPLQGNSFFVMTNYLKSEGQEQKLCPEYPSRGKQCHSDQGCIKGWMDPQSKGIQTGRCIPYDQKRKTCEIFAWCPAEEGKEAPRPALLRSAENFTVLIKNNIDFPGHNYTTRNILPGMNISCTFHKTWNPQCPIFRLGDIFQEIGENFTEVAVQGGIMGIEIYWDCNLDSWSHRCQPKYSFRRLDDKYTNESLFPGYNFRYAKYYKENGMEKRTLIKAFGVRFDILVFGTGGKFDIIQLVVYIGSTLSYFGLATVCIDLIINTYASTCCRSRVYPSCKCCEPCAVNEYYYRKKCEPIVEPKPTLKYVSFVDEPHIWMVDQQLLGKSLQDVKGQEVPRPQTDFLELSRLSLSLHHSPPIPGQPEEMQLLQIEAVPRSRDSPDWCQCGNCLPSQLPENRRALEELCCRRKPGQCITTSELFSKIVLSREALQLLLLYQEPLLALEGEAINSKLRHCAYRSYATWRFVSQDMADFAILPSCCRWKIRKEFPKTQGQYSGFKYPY

[5] = system: P2X7R; format: in vivo, mouse
Experimental: The brains from stress-free mice were shock frozen, cut into 16 μm slices and fixed with paraformaldehyde for 5 minutes. The sections were blocked for 30 minutes at room temperature with 1:10 horse serum. All antibodies were diluted in TBST buffer (Tris-buffered saline with 0.05% Tween-20). The first antibody was used in a dilution 1:200 and incubated overnight. All washes were performed with TBST buffer. As a secondary antibody, an anti-goat IgG biotinylated (Vector Laboratories) was used and detection was performed using the streptavidin-biotin-horse-radish peroxidase complex system (Vector Laboratories) in combination with diaminobencidine. Slides were counterstained with toluidine blue using standard procedures. The same procedure in the absence of the primary antibody was performed as a negative control. As a positive control to test the Preservation of the tissue was verified with an antibody specific for the protein Patched1 (Santa Cruz Biotechnology). Patched1 was used as positive control since it stains all relevant brain structures and is not affected by stress or antidepressants.
At the end of the experiment, the mice were sacrificed and the brains were examined to confirm the location and efficiency of the siRNA injections. For this purpose the brains were cut into sections and the slides were stained by immunohistochemistry using the above mentioned protocols. […]

[6] = biological target: T2, human P2X7R (Homo sapiens, UniProt Q99572); test: Calcium entry in HT-22 cells overexpressing human P2X7R (Fluo-4 AM); format: cell-based; conditions: 20 μM BzATP or 50 μM tenidap
T2 construct: expressed in transfected cells
T2 sequence (Q99572 1-595): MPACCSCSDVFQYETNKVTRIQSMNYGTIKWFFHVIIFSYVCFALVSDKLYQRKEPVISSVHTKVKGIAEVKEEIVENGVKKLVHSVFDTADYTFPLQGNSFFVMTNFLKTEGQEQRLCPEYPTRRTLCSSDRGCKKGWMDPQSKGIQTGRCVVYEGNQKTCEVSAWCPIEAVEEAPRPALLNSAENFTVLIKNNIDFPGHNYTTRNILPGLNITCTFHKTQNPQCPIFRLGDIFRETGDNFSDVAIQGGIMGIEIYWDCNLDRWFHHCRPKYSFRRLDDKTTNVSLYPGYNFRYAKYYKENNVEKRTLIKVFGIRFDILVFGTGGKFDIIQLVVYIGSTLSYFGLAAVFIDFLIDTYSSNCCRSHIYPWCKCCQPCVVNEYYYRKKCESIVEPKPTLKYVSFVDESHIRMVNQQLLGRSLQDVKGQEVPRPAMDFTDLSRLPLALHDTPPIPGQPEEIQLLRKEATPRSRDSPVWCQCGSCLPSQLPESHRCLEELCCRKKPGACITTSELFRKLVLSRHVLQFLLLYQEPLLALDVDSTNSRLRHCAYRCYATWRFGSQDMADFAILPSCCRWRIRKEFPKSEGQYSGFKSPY
Excerpt: Yet another method for identifying P2X7R agonists was devised by generating a immortalised mouse cell line that overexpresses the human P2X7R gene under the control of the human cytomegalovirus (CMV) early promoter/enhancer region. The human P2X7R cDNA was inserted into the pcDNA3.1 vector (Invitrogen) and transfected into the mouse hippocampal cell line HT-22 using Lipofectamine (Invitrogen) according to the manufacturer's specifications. One day after transfection, culture medium containing 500 μg/ml G418 was added to the cells. Resistant clones were separately isolated and cultured 14 days after applying the selection medium.
The agonistic activity of a compound was evaluated by measuring calcium entry in the cells that overexpress the human P2X7R. Cells were cultured in 96 well plates and incubated at 37° C. with 5% C02 DMEM with 10% foetal calf serum (Gibco) until they reached confluence. Cells were then loaded for one hour with 10 μM of Fluo4 AM (Molecular Probes). Fluo-4 AM is a fluorescent dye that binds to intracellular calcium. […] Agonist activity was detected by measuring an increase in calcium influx which results in increased binding to Fluo4 AM and increased fluorescence. Changes in fluorescence signal are measured using a Fluostar Optima plate reader (BMG biotech). […] Thus, both compound stimulated the activity of P2X7R which results in an influx of ions into the cells.

[7] = 100 nM KN-62 or 10 μM oATP, 1 μl each side, dentate gyrus, 24 hours after injection, DBA/201a mice

With `Fc1ccc([C@@H]2CCNC[C@H]2COc2ccc3c(c2)OCO3)cc1` [paroxetine] the “passive stress coping behaviour (floating) in the forced swim test” value ([1]; paroxetine by gavage, 10 mg/kg bodyweight twice per day, 28 days, male mice) was “decreased”.
In the case of `Nc1ncnc2c1ncn2[C@@H]1O[C@H](COP(=O)(O)OP(=O)(O)OP(=O)(O)O)[C@@H](O)[C@H]1O` [ATP], the “levels of ATP required to achieve activation of P2X7R” value [2] is given as greater than 1 mM and the “ATP concentrations at which other P2X receptors activate” value [3] is given as no more than 100 µM.
For `CC(CCc1ccccc1)NCC(O)c1ccc(O)c(C(N)=O)c1` (stereo not drawn) [labetolol], the “opening of the cation channel activity of P2X7R” value (shortened to “opening”) [4] is given as “without affecting” and the “pore-forming activity of P2X7R” value [4] is given as “inhibit the pore-forming activity”.
With “P2X7R specific siRNA: double stranded siRNA, 5′-GUGGGUCUUGCACAUGAUCTT-3′ and 5′-GAUCAUGUGCAAGACCCACTT-3′ annealed (chemistry not given here)” the “floating behaviour (passive stress coping) in the forced swim test” value ([1]; intrahippocampal bilateral (dentate gyrus), 0.1 nmol/μl, 1 μl per side, 24 hours and 48 hours after infusion) was “significant increase in passive behaviour”, the “local inflammation or infiltration at the hippocampus” value ([5]; mouse, in vivo) was “did not produce any sign of local inflammation or infiltration” and the “inhibition of P2X7R protein expression” value ([5]; siRNA injected near the dentate gyrus, compared to vehicle or control double stranded RNA) was 80%.
In the case of `NC(=O)N1C(=O)/C(=C(\O)c2cccs2)c2cc(Cl)ccc21` [tenidap, 5-chloro-2,3-dihydro-2-oxo-3-(2-thienylcarbonyl)-indole-1-carboxamide], the “calcium influx (Fluo-4 AM fluorescence intensity)” value [6] is reported as “rapid increase in fluorescence intensity”.
In the case of `CC(C)NC[C@@H](O)COc1cccc2ccccc12` [D-propanolol], the “opening” value [4] is listed as “without affecting” and the “pore-forming activity of P2X7R” value [4] is listed as “inhibit the pore-forming activity”.
In the case of `CC(C)NCC(O)COc1cccc2ccccc12` (racemic) [DL-propanolol], the “opening” value [4] is listed as “without affecting” and the “pore-forming activity of P2X7R” value [4] is listed as “inhibit the pore-forming activity”.
With `CN([C@@H](Cc1ccc(OS(=O)(=O)c2cccc3cnccc23)cc1)C(=O)N1CCN(c2ccccc2)CC1)S(=O)(=O)c1cccc2cnccc12` [KN-62, 1-(N,O-bis[5-isoquinolinesulphonyl]-N-methyl-L-tyrosyl)-4-phenylpiperazine] the “active escape attempts (time, frequency, latency of struggling) in the forced swim test” value [1, 7] was “no changes” and the “passive behaviour (time, frequency, latency of floating) in the forced swim test” value [1, 7] was “no changes”.

Reference: patent publication US7767398B2, “Means and methods for diagnosing and treating affective disorders” (Affectis Pharmaceuticals AG, priority 2003, dated 2010)
